Results reported in patent US20160220569A1, “CDK4/6 Inhibitor Dosage Formulations For The Protection Of Hematopoietic Stem And Progenitor Cells During Chemotherapy” (G1 Therapeutics, Inc., priority 2015, published 2016).
Read-outs that look alike come from different tables or passages of the source.

Assay: 14-day oral gavage toxicokinetic study in rats
Type: in vivo
Settings: female, rat, plasma, po; for half-life: read-out: t½ (converted); for concentration at 0.5 h / concentration at 2 h / concentration at 4 h / concentration at 8 h / concentration at 12 h / concentration at 24 h / concentration at 1 h / concentration at […]: rats
Procedure: Plasma was obtained from blood samples collected from rats in a composite sampling scheme, with 3 samples collected per sex, per dose, at each target collection time, as illustrated in Table 21 to Table 25. Samples were collected from the vehicle control group on Day 1 and Day 14 at 3 hour after administration. […] Blood samples were collected in tubes containing K3EDTA as an anticoagulant and placed on ice until processed to plasma via centrifugation. Samples were stored frozen at −80° C. until shipment to the bioanalytical laboratory for analysis.
The following parameters were determined:
Cmax: Maximum observed plasma concentration (ng/mL).
A value of 0 ng/mL was assigned to all values below the lower limit of quantitation (BLQ, <10.0 ng/mL).
AUC(0-inf): Area under the plasma concentration vs. time curve extrapolated from 0 to infinity (ng*h/mL), calculated as AUC(0-t)+AUC(t-inf) where AUC(t-inf) is calculated as last measurable concentration (CLast) divided by ke, where ke is the elimination rate constant determined by linear regression of the last three analytically measured points on the log plasma concentration vs. time curve. The selection criteria of the data points for inclusion in the calculation of ke required that at least three data points representing the terminal phase (after Tmax) were regressed and that R2≧0.850 when rounded.
CL: Clearance (L/h/kg), calculated as the dose divided by AUC(0-t).
Vd: Volume of distribution (L/kg), calculated as dose divided by the product of ke and AUC(0-inf).
Vdss: Steady state volume of distribution (L/kg), calculated as clearance […] mean residence time, where mean residence time is calculated as the area under the first moment curve divided by AUC(0-t).
t½: Elimination half-life (h), calculated as ln(2)/ke, where ke is the elimination rate constant determined by linear regression. Half-life was defined as not determined if regression criteria (specified in AUC(0-inf) above) were not met.
Cmax/Dose: Normalized Cmax, calculated as Cmax divided by total dose.
AUC/Dose: Normalized AUC, calculated as AUC(0-t) divided by total dose.
ii. Statistical Analysis Mean and standard deviation (SD) were calculated in Watson. Values of BLQ were assigned a value of 0 ng/mL for mean calculations. Concentration values and derived TK parameters were reported to three significant figures.

[1] = 5 mg/kg, oral 5 mg/kg, Study Day 14, Female
[2] = 15 mg/kg, oral 15 mg/kg, Study Day 1, Female
[3] = 15 mg/kg, oral 15 mg/kg, Study Day 14, Female

**Q.** Which Tmax [1] does the source give for `CN1CCN(c2ccc(Nc3ncc4cc5n(c4n3)C3(CCCCC3)CNC5=O)nc2)CC1` [Compound 1, 2′-((5-(4-methylpiperazin-1-yl)pyridin-2-yl)amino)-7′,8′-dihydro-6′H-spiro[cyclohexane-1,9′-pyrazino[1′,2′:1,5]pyrrolo[2,3-d]pyrimidin]-6′-one] here?
**A.** 1 h

**Q.** And the half-life [1]?
**A.** 4.41 h

**Q.** And the concentration at 0.5 h (15 mg/kg, Individual Compound 1 Plasma Concentration, daily oral 15 mg/kg, Day 1, Female, 0.5 h)?
**A.** 1050 ng/mL

**Q.** What about the concentration at 2 h (15 mg/kg, Individual Compound 1 Plasma Concentration, daily oral 15 mg/kg, Day 1, Female, 2 h) of the same molecule?
**A.** 1820 ng/mL

**Q.** And the concentration at 4 h (15 mg/kg, Individual Compound 1 Plasma Concentration, daily oral 15 mg/kg, Day 1, Female, 4 h)?
**A.** 1750 ng/mL

**Q.** And the concentration at 8 h (15 mg/kg, Individual Compound 1 Plasma Concentration, daily oral 15 mg/kg, Day 1, Female, 8 h)?
**A.** 1250 ng/mL

**Q.** And the concentration at 12 h (15 mg/kg, Individual Compound 1 Plasma Concentration, daily oral 15 mg/kg, Day 1, Female, 12 h)?
**A.** 1010 ng/mL

**Q.** And the concentration at 24 h (15 mg/kg, Individual Compound 1 Plasma Concentration, daily oral 15 mg/kg, Day 1, Female, 24 h)?
**A.** 63.9 ng/mL

**Q.** What about the concentration at 0.5 h (15 mg/kg, Individual Compound 1 Plasma Concentration, daily oral 15 mg/kg, Day 14, Female, 0.5 h) of the same molecule?
**A.** 908 ng/mL

**Q.** And the concentration at 1 h (15 mg/kg, Individual Compound 1 Plasma Concentration, daily oral 15 mg/kg, Day 14, Female, 1 h)?
**A.** 1410 ng/mL

**Q.** What about the concentration at 4 h (15 mg/kg, Individual Compound 1 Plasma Concentration, daily oral 15 mg/kg, Day 14, Female, 4 h) of the same molecule?
**A.** 1580 ng/mL

**Q.** What about the concentration at 8 h (15 mg/kg, Individual Compound 1 Plasma Concentration, daily oral 15 mg/kg, Day 14, Female, 8 h) of the same molecule?
**A.** 996 ng/mL

**Q.** And the concentration at 12 h (15 mg/kg, Individual Compound 1 Plasma Concentration, daily oral 15 mg/kg, Day 14, Female, 12 h)?
**A.** 1060 ng/mL

**Q.** And the concentration at 24 h (15 mg/kg, Individual Compound 1 Plasma Concentration, daily oral 15 mg/kg, Day 14, Female, 24 h)?
**A.** 106 ng/mL

**Q.** What about the concentration at […] (15 mg/kg, Individual Compound 1 Plasma Concentration, daily oral 15 mg/kg, Day 14, Female, […]) of the same molecule?
**A.** 117 ng/mL

**Q.** And the concentration at 0.5 h (15 mg/kg, Mean Compound 1 Plasma Concentration, oral 15 mg/kg, Day 1, 0.5 h, Female)?
**A.** 1180 ng/mL

**Q.** What about the concentration at 1 h (15 mg/kg, Mean Compound 1 Plasma Concentration, oral 15 mg/kg, Day 1, 1 h, Female) of the same molecule?
**A.** 1530 ng/mL

**Q.** And the concentration at 2 h (15 mg/kg, Mean Compound 1 Plasma Concentration, oral 15 mg/kg, Day 1, 2 h, Female)?
**A.** 1910 ng/mL

**Q.** What about the concentration at 4 h (15 mg/kg, Mean Compound 1 Plasma Concentration, oral 15 mg/kg, Day 1, 4 h, Female) of the same molecule?
**A.** 1690 ng/mL

**Q.** And the concentration at 8 h (15 mg/kg, Mean Compound 1 Plasma Concentration, oral 15 mg/kg, Day 1, 8 h, Female)?
**A.** 1440 ng/mL

**Q.** What about the concentration at 12 h (15 mg/kg, Mean Compound 1 Plasma Concentration, oral 15 mg/kg, Day 1, 12 h, Female) of the same molecule?
**A.** 916 ng/mL

**Q.** What about the concentration at 24 h (15 mg/kg, Mean Compound 1 Plasma Concentration, oral 15 mg/kg, Day 1, 24 h, Female) of the same molecule?
**A.** 84.5 ng/mL

**Q.** And the concentration at […] (15 mg/kg, Mean Compound 1 Plasma Concentration, oral 15 mg/kg, Day 1, […], Female)?
**A.** 109 ng/mL

**Q.** What about the concentration at 0.5 h (15 mg/kg, Mean Compound 1 Plasma Concentration, oral 15 mg/kg, Day 14, 0.5 h, Female) of the same molecule?
**A.** 1170 ng/mL

**Q.** What about the concentration at 1 h (15 mg/kg, Mean Compound 1 Plasma Concentration, oral 15 mg/kg, Day 14, 1 h, Female) of the same molecule?
**A.** 1450 ng/mL

**Q.** And the concentration at 2 h (15 mg/kg, Mean Compound 1 Plasma Concentration, oral 15 mg/kg, Day 14, 2 h, Female)?
**A.** 1490 ng/mL

**Q.** What about the concentration at 4 h (15 mg/kg, Mean Compound 1 Plasma Concentration, oral 15 mg/kg, Day 14, 4 h, Female) of the same molecule?
**A.** 1570 ng/mL

**Q.** What about the concentration at 8 h (15 mg/kg, Mean Compound 1 Plasma Concentration, oral 15 mg/kg, Day 14, 8 h, Female) of the same molecule?
**A.** 979 ng/mL

**Q.** And the concentration at 12 h (15 mg/kg, Mean Compound 1 Plasma Concentration, oral 15 mg/kg, Day 14, 12 h, Female)?
**A.** 805 ng/mL

**Q.** What about the concentration at 24 h (15 mg/kg, Mean Compound 1 Plasma Concentration, oral 15 mg/kg, Day 14, 24 h, Female) of the same molecule?
**A.** 130 ng/mL

**Q.** And the concentration at […] (15 mg/kg, Mean Compound 1 Plasma Concentration, oral 15 mg/kg, Day 14, […], Female)?
**A.** 131 ng/mL

**Q.** And the AUC(0-inf) [2]?
**A.** 23700 ng·h/mL

**Q.** And the AUC(0-t) [2]?
**A.** 23200 ng·h/mL

**Q.** And the Cmax [2]?
**A.** 1910 ng/mL

**Q.** And the Tmax [2]?
**A.** 2 h

**Q.** What about the AUC(0-inf) [3] of the same molecule?
**A.** 20800 ng·h/mL

**Q.** What about the AUC(0-t) [3] of the same molecule?
**A.** 19800 ng·h/mL

**Q.** And the Cmax [3]?
**A.** 1570 ng/mL

**Q.** What about the Tmax [3] of the same molecule?
**A.** 4 h

**Q.** And the half-life [3]?
**A.** 5.24 h

**Q.** What about the concentration at 0.5 h (30 mg/kg, Individual Compound 1 Plasma Concentration, daily oral 30 mg/kg, Day 1, Female, 0.5 h) of the same molecule?
**A.** 2030 ng/mL

**Q.** And the concentration at 1 h (30 mg/kg, Individual Compound 1 Plasma Concentration, daily oral 30 mg/kg, Day 1, Female, 1 h)?
**A.** 2500 ng/mL

**Q.** What about the concentration at 2 h (30 mg/kg, Individual Compound 1 Plasma Concentration, daily oral 30 mg/kg, Day 1, Female, 2 h) of the same molecule?
**A.** 3440 ng/mL

**Q.** What about the concentration at 4 h (30 mg/kg, Individual Compound 1 Plasma Concentration, daily oral 30 mg/kg, Day 1, Female, 4 h) of the same molecule?
**A.** 2570 ng/mL

**Q.** What about the concentration at 8 h (30 mg/kg, Individual Compound 1 Plasma Concentration, daily oral 30 mg/kg, Day 1, Female, 8 h) of the same molecule?
**A.** 2480 ng/mL

**Q.** And the concentration at 12 h (30 mg/kg, Individual Compound 1 Plasma Concentration, daily oral 30 mg/kg, Day 1, Female, 12 h)?
**A.** 2000 ng/mL

**Q.** What about the concentration at 24 h (30 mg/kg, Individual Compound 1 Plasma Concentration, daily oral 30 mg/kg, Day 1, Female, 24 h) of the same molecule?
**A.** 310 ng/mL

**Q.** What about the concentration at […] (30 mg/kg, Individual Compound 1 Plasma Concentration, daily oral 30 mg/kg, Day 1, Female, […]) of the same molecule?
**A.** 114 ng/mL

**Q.** What about the concentration at 0.5 h (30 mg/kg, Individual Compound 1 Plasma Concentration, daily oral 30 mg/kg, Day 14, Female, 0.5 h) of the same molecule?
**A.** 1450 ng/mL

**Q.** What about the concentration at 1 h (30 mg/kg, Individual Compound 1 Plasma Concentration, daily oral 30 mg/kg, Day 14, Female, 1 h) of the same molecule?
**A.** 2740 ng/mL

**Q.** What about the concentration at 2 h (30 mg/kg, Individual Compound 1 Plasma Concentration, daily oral 30 mg/kg, Day 14, Female, 2 h) of the same molecule?
**A.** 2170 ng/mL

**Q.** And the concentration at 4 h (30 mg/kg, Individual Compound 1 Plasma Concentration, daily oral 30 mg/kg, Day 14, Female, 4 h)?
**A.** 2700 ng/mL

**Q.** What about the concentration at 8 h (30 mg/kg, Individual Compound 1 Plasma Concentration, daily oral 30 mg/kg, Day 14, Female, 8 h) of the same molecule?
**A.** 1970 ng/mL

**Q.** And the concentration at 12 h (30 mg/kg, Individual Compound 1 Plasma Concentration, daily oral 30 mg/kg, Day 14, Female, 12 h)?
**A.** 2290 ng/mL

**Q.** What about the concentration at 24 h (30 mg/kg, Individual Compound 1 Plasma Concentration, daily oral 30 mg/kg, Day 14, Female, 24 h) of the same molecule?
**A.** 280 ng/mL
